In patent US6372940B1, “Process for the preparation of non-hygroscopic salts of L(−)-carnitine” (Sigma-Tau Industrie Farmaceutiche Riunite S.p.A, priority 1999, dated 2002):

Columns and labels:
[1] = Tapped density of the granulate (U.S. Pharmacopoeia method); type: physicochemical; settings: for tapped density of the granulate: product of the humid melting process of the invention, USP 23 NF 18 method
Text: It is in fact known that an inadequately low density (for example, for L(−)-carnitine acid fumarate, a tapped density value below 0.7 g/mL) provides a too light and flaky product which involves serious processability problems. The bulk density is not a reliable parameter for granulated or powdery products, in that even imperceptible perturbations of the test sample can give rise to remarkably different bulk density values. For the characterization of the density of said materials the tapped density is preferably used, which is the limit density obtained after tapping down the material by subjecting a graduated cylinder containing the granulate or powder to strokes, namely by hoisting the cylinder to a fixed height then dropping it for a fixed number of times. The tapped density is usually determined according to the method described in U.S. Pharmacopoeia, National Formulary, Supplement, USP 23, NF 18, Nov. 15, 1997, pages 3976-3977. Said method is herein incorporated by reference. The material is passed through a 1 mm (n. 18 mesh) sieve to crush any agglomerates formed during storage. About 100 g (M) of the test material are placed without tapping down in a 250 mL graduated cylinder. Using a suitable device, the cylinder is hoisted then dropped under the action of its own weight, from a height of 14+2 mm, with a 300 times/minute fall frequency. The volume of the material after a first 500 fall cycle is then measured. […] The tapped density, in g/mL, is expressed by the formula: M/Vf.

[2] = Hygroscopicity and storage behaviour of the granulate; type: physicochemical; settings: ground to the desired particle size

Molecule: L(−)-carnitine Acid Fumarate [Example 2]
- Physico-chemical characteristics of the final compound ([1]; prepared in the presence of a crystallization initiator): the same as those obtained in the preparation of Example 1

Molecule: L(−)-carnitine Acid Fumarate [Example 1]
- tapped density of the granulate [1]: 0.84 g/mL
- hygroscopicity of the granulate [2]: non-hygroscopic
- stability of the granulate in time (packing and/or aggregation) [2]: remained unchanged in time without undergoing packing and/or aggregation

Molecule: C[N+](C)(C)C[C@H](O)CC(=O)O.C[N+](C)(C)C[C@H](O)CC(=O)O.O=C([O-])C(O)C(O)C(=O)[O-] [Example 3, L(−)-carnitine Tartrate (2:1)]
- tapped density of the granulate [1]: 0.83 g/mL
